Like-named read-outs stand apart in the source and are kept apart here. Square brackets hold non-standard residues; d marks the D form. Peptide text beside a SMILES is read from it. dPhe(4-NO2) = N[C@H](Cc1ccc([N+](=O)[O-])cc1)C(=O)O; dPhe(F5) = N[C@H](Cc1c(F)c(F)c(F)c(F)c1F)C(=O)O; dBpa = N[C@H](Cc1ccc(C(=O)c2ccccc2)cc1)C(=O)O; dCha = N[C@H](CC1CCCCC1)C(=O)O
Key:
[1] = test system: Jurkat cells; experiment: G2 checkpoint abrogation in bleomycin treated Jurkat cells, flow cytometry; format: cell-based, human; conditions: for G2 abrogating dose: Jurkat cells, with 40 μg/ml bleomycine, 24 hours, dose with detectable G2 checkpoint abrogation; for G2 checkpoint abrogating activity (in words): bleomycin (40 μg/ml) treated Jurkat cells, % G2/M cells
Procedure: Flow cytometry analysis of G2 checkpoint abrogation was performed using human leukemia derived Jurkat cell line. In brief, cultured cells were treated with various doses of peptide/peptidomimetic and 40 μg/ml bleomycine for 24 hr. The DNA of the cells was stained with propidium iodide and analyzed by flow cytometry.
The “Appearance of side effect when used alone” indicates the peptide/peptidomimetic dose that produced Jurkat cell cycle disturbance, i.e., the appearance of significant amounts of SubG1 cells (dead cells) or cells in which the DNA content of each varies more than usual. […] The “G2 abrogating dose” indicates the peptide/peptidomimetic dose with 40 μg/ml bleomycine that produced detectable G2 checkpoint abrogation activity following treatment for 24 hours. The “Appearance of side effect when used with colchicine” indicates the peptide/peptidomimetic dose with 5 μg/ml colchicine that produced Jurkat cell cycle disturbance following treatment for 24 hours.

[2] = Maximal tolerated dose in mouse by single injection; conditions: in vivo, observed for a week
[3] = molecular target: T1, recombinant human full length Chk2 (Homo sapiens, UniProt O96017); experiment: In vitro kinase inhibition (CycLex), phosphorylation of serine 216 on GST-Cdc25C; format: biochemical
T1 construct: E. Coli derived recombinant human full length Chk2 fused with GST; host or cells: E. coli
T1 sequence (O96017 whole entry, the tested form may be a part): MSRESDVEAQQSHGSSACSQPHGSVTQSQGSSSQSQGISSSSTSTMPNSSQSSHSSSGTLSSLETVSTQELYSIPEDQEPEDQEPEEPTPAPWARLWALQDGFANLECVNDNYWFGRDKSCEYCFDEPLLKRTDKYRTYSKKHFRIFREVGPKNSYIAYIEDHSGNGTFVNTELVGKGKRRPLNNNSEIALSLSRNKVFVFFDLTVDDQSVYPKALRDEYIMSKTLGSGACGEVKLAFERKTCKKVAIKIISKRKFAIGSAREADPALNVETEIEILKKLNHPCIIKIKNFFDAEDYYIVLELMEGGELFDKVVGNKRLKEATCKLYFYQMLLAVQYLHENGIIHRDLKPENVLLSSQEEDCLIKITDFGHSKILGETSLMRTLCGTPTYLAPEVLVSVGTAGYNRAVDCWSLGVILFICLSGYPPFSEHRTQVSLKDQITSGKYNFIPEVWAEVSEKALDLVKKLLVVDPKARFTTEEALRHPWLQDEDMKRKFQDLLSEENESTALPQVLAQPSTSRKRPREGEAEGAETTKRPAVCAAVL
Procedure: (§1) In vitro kinase inhibition analysis was performed by CycLex, Co. Ltd., Nagano, Japan. Briefly, baculovirus derived recombinant human full length Chk1 with histidine tag or E. Coli derived recombinant human full length Chk2 fused with GST were used as kinases. E. Coli derived recombinant GST-Cdc25C (amino acis 167–267) was used as a substrate. Reaction conditions were 20 mM Hepes-KOH (pH7.5), 1 mM DTT, […] BSA, 10 mM MgCl2 and […] ATP at 30 degree for 60 min. The phosphorylation of serine 216 on GST-Cdc25C was detected by anti-Cdc25C-phosphorylated S216 antibody with enzyme linked immune assay.

[4] = molecular target: T2, recombinant human full length Chk1 (Homo sapiens, UniProt O14757); experiment: as above; format: biochemical
T2 construct: baculovirus derived recombinant human full length Chk1 with histidine tag; histidine tag; host or cells: baculovirus system (insect cells)
T2 sequence (O14757 1-476): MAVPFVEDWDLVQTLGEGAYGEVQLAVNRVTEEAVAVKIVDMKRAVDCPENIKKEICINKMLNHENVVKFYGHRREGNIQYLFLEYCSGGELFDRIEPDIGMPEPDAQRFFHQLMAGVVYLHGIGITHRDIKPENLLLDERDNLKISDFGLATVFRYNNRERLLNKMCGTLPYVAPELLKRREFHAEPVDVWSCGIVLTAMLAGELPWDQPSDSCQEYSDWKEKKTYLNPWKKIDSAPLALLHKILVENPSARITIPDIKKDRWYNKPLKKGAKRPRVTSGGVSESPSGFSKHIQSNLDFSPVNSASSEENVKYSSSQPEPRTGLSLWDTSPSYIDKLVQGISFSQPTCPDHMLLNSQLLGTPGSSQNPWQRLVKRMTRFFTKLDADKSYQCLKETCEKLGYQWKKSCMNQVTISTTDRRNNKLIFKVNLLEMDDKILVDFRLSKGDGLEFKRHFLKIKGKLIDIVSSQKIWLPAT
Procedure: as §1

[5] = test system: Jurkat cells; experiment: M phase checkpoint abrogation / non specific toxicity in colchicine treated Jurkat cells, flow cytometry; format: cell-based; conditions: with 5 μg/ml colchicine, 24 hours
Procedure: Cell-cycle analysis The cell cycle status of the cells treated with bleomycin or adriamcin were analyzed by flow cytometry as described by Kawabe (1997) Nature 385:454–458. In brief, two million cells were re-suspended and incubated in 200 μul Krishan's solution (0.1% Sodium citrate, 50 μg/ml PI, 20 μg/ml RNase A and 0.5% NP-40) for 1 hr at 4° C. and analyzed by a flow cytometry, FACScan™ (Beckton Dickinson, Mountain View, Calif.) with the program CELLQuest™ (Beckton Dickinson).
Flow cytometry analysis of M phase checkpoint abrogation by the compounds was performed using human T cell leukemia Jurkat cell line treated with colchicine (5 μg/ml or 0.5 μg/ml) and various doses of peptide/peptidomimetics for 24 hr (FIG. 12). The DNA of the cells was stained and analyzed by flow cytometry as described above.
The “Appearance of side effect when used alone” indicates the peptide/peptidomimetic dose that produced Jurkat cell cycle disturbance, i.e., the appearance of significant amounts of SubG1 cells (dead cells) or cells in which the DNA content of each varies more than usual. […]
A comparison between G2 checkpoint abrogating activity and non specific toxicity (M checkpoint abrogation) by CB501 was performed. […] The DNA amount in each of the treated cells was analyzed by flow cytometry, as previously described.

[6] = Human serum treatment analysis, residual G2 checkpoint abrogating activity; format: in vitro ADME; conditions: d-type amino acid peptides compared with l-type peptide such as CBP413
Procedure: Serum analysis was performed to determine the stability of peptides in mouse and human serum. Briefly, peptides (10 mM or 2.5 mM) were incubated with freshly prepared human serum at 37 degrees for 1 hr. CBP50 (10 mM) was incubated with freshly prepared mouse serum for 1 hr at 37 degree. Jurkat cells were treated with the serum with or without peptides and bleomycin (40 μg/ml) and incubated for 24 hr. The population of G2 phase cells was determined by flow cytometry as previously described. The residual G2 checkpoint abrogating activity of serum treated peptides were determined by comparing the % G2 cells of the treated serum and the standard curve produced with medium treated peptides, bleomycin and Jurkat cells (Table 5A).

N=C(N)NCCC[C@@H](NC(=O)[C@@H](CCCNC(=N)N)NC(=O)[C@@H](CCC(N)=O)NC(=O)[C@@H](CCCNC(=N)N)NC(=O)[C@@H](CCCNC(=N)N)NC(=O)[C@@H](CCCNC(=N)N)NC(=O)[C@@H](CC1CCCCC1)NC(=O)[C@@H](Cc1c(F)c(F)c(F)c(F)c1F)NC(=O)[C@@H](CO)NC(=O)[C@@H](Cc1c[nH]c2ccccc12)NC(=O)[C@@H](CO)NC(=O)[C@@H](Cc1ccc(C(=O)c2ccccc2)cc1)NC(=O)[C@H](N)Cc1ccc(O)cc1)C(=O)O [CBP500, (d-Tyr)(d-Bpa)(d-Ser)(d-Trp)(d-Ser)(d-Phe-2,3,4,5,6-F)(d-Cha)(d-Arg)(d-Arg)(d-Arg)(d-Gln)(d-Arg)(d-Arg)] (H-[dY][dBpa][dS][dW][dS][dPhe(F5)][dCha][dR][dR][dR][dQ][dR][dR]-OH; N-terminus and C-terminus assumed)
G2 abrogating dose [1]: ≧0.39 μM

N=C(N)NCCC[C@H](NC(=O)CNC(=O)[C@@H](N)Cc1ccc(O)cc1)C(=O)N[C@@H](CCCCN)C(=O)N[C@@H](CCCCN)C(=O)N[C@@H](CCCNC(=N)N)C(=O)N[C@@H](CCCNC(=N)N)C(=O)N[C@@H](CCC(N)=O)C(=O)N[C@@H](CCCNC(=N)N)C(=O)N[C@@H](CCCNC(=N)N)C(=O)N[C@@H](CCCNC(=N)N)C(=O)N[C@@H](CC1CCCCC1)C(=O)N[C@@H](Cc1c(F)c(F)c(F)c(F)c1F)C(=O)N[C@@H](CCCNC(=N)N)C(=O)N[C@@H](CO)C(=O)N1CCC[C@H]1C(=O)N[C@@H](CO)C(=O)N[C@@H](Cc1ccc(O)cc1)C(=O)N[C@@H](Cc1ccc(O)cc1)C(=O)O [CBP413, (l-Tyr)(l-Gly)(l-Arg)(l-Lys)(l-Lys)(l-Arg)(l-Arg)(l-Gln)(l-Arg)(l-Arg)(l-Arg)(l-Cha)(l-Phe-2,3,4,5,6-F)(l-Arg)(l-Ser)(l-Pro)(l-Ser)(l-Tyr)(l-Tyr)]
MTD ([2]; ip, single intra-peritoneal injection, read-out: MTD (ip)): 147 mg/kg | MTD ([2]; single intravenous injection, read-out: MTD (iv)): 14 mg/kg

(d-Arg)(d-Arg)(d-Arg)(d-Bpa)(d-Arg)(d-Arg)(d-Arg)(d-Phe-2,3,4,5,6-F)(d-Cha) [CBP703]
G2 checkpoint abrogating activity (in words) [1]: retain G2 checkpoint abrogating activity comparable to other peptides having significant G2 checkpoint abrogating activity

N=C(N)NCCC[C@@H](NC(=O)[C@@H](CCCNC(=N)N)NC(=O)[C@@H](CCC(N)=O)NC(=O)[C@@H](CCCNC(=N)N)NC(=O)[C@@H](CCCNC(=N)N)NC(=O)[C@@H](CCCNC(=N)N)NC(=O)[C@@H](CC1CCCCC1)NC(=O)[C@@H](Cc1c(F)c(F)c(F)c(F)c1F)NC(=O)[C@@H](CC(=O)O)NC(=O)[C@@H](CO)NC(=O)[C@@H](Cc1c[nH]c2ccccc12)NC(=O)[C@@H](CO)NC(=O)[C@H](N)Cc1ccc(C(=O)c2ccccc2)cc1)C(=O)O [CBP506, (d-Bpa)(d-Ser)(d-Trp)(d-Ser)(d-Asp)(d-Phe-2,3,4,5,6-F)(d-Cha)(d-Arg)(d-Arg)(d-Arg)(d-Gln)(d-Arg)(d-Arg)] (H-[dBpa][dS][dW][dS][dD][dPhe(F5)][dCha][dR][dR][dR][dQ][dR][dR]-OH; N-terminus and C-terminus assumed)
IC50 [3]: 67 µM | IC50 [4]: 37.6 µM

(d-Arg)(d-Arg)(d-Arg)(d-Arg)(d-Bpa)(d-Arg)(d-Trp)(d-Arg)(d-Phe-2,3,4,5,6-F)(d-Cha) [CBP702]
G2 checkpoint abrogating activity (in words) [1]: retain G2 checkpoint abrogating activity comparable to other peptides having significant G2 checkpoint abrogating activity

(d-Arg)(d-Arg)(d-Arg)(d-Bpa)(d-Arg)(d-Trp)(d-Arg)(d-Phe-2,3,4,5,6-F)(d-Cha) [CBP701]
G2 checkpoint abrogating activity (in words) [1]: retain G2 checkpoint abrogating activity comparable to other peptides having significant G2 checkpoint abrogating activity

N=C(N)NCCC[C@H](NC(=O)CNC(=O)[C@@H](N)Cc1ccc(O)cc1)C(=O)N[C@@H](CCCCN)C(=O)N[C@@H](CCCCN)C(=O)N[C@@H](CCCNC(=N)N)C(=O)N[C@@H](CCCNC(=N)N)C(=O)N[C@@H](CCC(N)=O)C(=O)N[C@@H](CCCNC(=N)N)C(=O)N[C@@H](CCCNC(=N)N)C(=O)N[C@@H](CCCNC(=N)N)C(=O)N[C@@H](CC1CCCCC1)C(=O)N[C@@H](Cc1c(F)c(F)c(F)c(F)c1F)C(=O)N[C@@H](CCCNC(=N)N)C(=O)N[C@@H](CO)C(=O)N1CCC[C@H]1C(=O)N[C@@H](CO)C(=O)N[C@@H](Cc1ccc(O)cc1)C(=O)O [CBP420, (l-Tyr)(l-Gly)(l-Arg)(l-Lys)(l-Lys)(l-Arg)(l-Arg)(l-Gln)(l-Arg)(l-Arg)(l-Arg)(l-Cha)(l-Phe-2,3,4,5,6-F)(l-Arg)(l-Ser)(l-Pro)(l-Ser)(l-Tyr)]
Appearance of side effect when used with Colchicine [5]: ≧50 μM

(d-Arg)(d-Arg)(d-Bpa)(d-Arg)(d-Arg)(d-Arg)(d-Phe-2,3,4,5,6-F)(d-Cha) [CBP700]
G2 checkpoint abrogating activity (in words) [1]: retain G2 checkpoint abrogating activity comparable to other peptides having significant G2 checkpoint abrogating activity

N=C(N)NCCC[C@@H](NC(=O)[C@@H](CCCCN)NC(=O)[C@@H](CCCCN)NC(=O)[C@@H](CCCNC(=N)N)NC(=O)[C@@H](CCCNC(=N)N)NC(=O)[C@@H](CCC(N)=O)NC(=O)[C@@H](CCCNC(=N)N)NC(=O)[C@@H](CCCNC(=N)N)NC(=O)[C@@H](CCCNC(=N)N)NC(=O)[C@@H](CC1CCCCC1)NC(=O)[C@@H](Cc1c(F)c(F)c(F)c(F)c1F)NC(=O)[C@@H](CCCNC(=N)N)NC(=O)[C@@H](CO)NC(=O)CNC(=O)[C@@H](CO)NC(=O)[C@@H](Cc1ccc(O)cc1)NC(=O)[C@H](N)Cc1ccc(O)cc1)C(=O)NCC(=O)N[C@H](Cc1ccc(O)cc1)C(=O)O [CBP450, (d-Tyr)(d-Tyr)(d-Ser)(l-Gly)(d-Ser)(d-Arg)(d-Phe-2,3,4,5,6-F)(d-Cha)(d-Arg)(d-Arg)(d-Arg)(d-Gln)(d-Arg)(d-Arg)(d-Lys)(d-Lys)(d-Arg)(l-Gly)(d-Tyr)] (H-[dY][dY][dS]G[dS][dR][dPhe(F5)][dCha][dR][dR][dR][dQ][dR][dR][dK][dK][dR]G[dY]-OH; N-terminus and C-terminus assumed)
G2 abrogating dose [1]: ≧0.78 μM

N=C(N)NCCC[C@@H](NC(=O)[C@@H](CCCNC(=N)N)NC(=O)[C@@H](CCC(N)=O)NC(=O)[C@@H](CCCNC(=N)N)NC(=O)[C@@H](CCCNC(=N)N)NC(=O)[C@@H](CCCNC(=N)N)NC(=O)[C@@H](CC1CCCCC1)NC(=O)[C@@H](Cc1ccc([N+](=O)[O-])cc1)NC(=O)[C@@H](CO)NC(=O)[C@@H](Cc1c[nH]c2ccccc12)NC(=O)[C@@H](CO)NC(=O)[C@H](N)Cc1ccc(C(=O)c2ccccc2)cc1)C(=O)O [CBP603, (d-Bpa)(d-Ser)(d-Trp)(d-Ser)(d-Phe4No2)(d-Cha)(d-Arg)(d-Arg)(d-Arg)(d-Gln)(d-Arg)(d-Arg)] (H-[dBpa][dS][dW][dS][dPhe(4-NO2)][dCha][dR][dR][dR][dQ][dR][dR]-OH; N-terminus and C-terminus assumed)
Stability in serum (in words) [6]: more stable in serum

— patent publication US6995135B2, “Peptides and peptidomimetics having anti-proliferative activity and/or that augment nucleic acid damaging agents or treatments” (priority 2002, dated 2006)
